From patent EP4772164A1, “CERAMIDE MIXTURE FOR IMPROVING COMPATIBILITY” (Amorepacific Corporation, priority 2023, dated 2025)

Assays:
Assay type in all cases: physicochemical
[1] = Ceramide compatibility by differential scanning calorimetry (DSC): melting enthalpy and compatibility ratio; details: for Ratio: measured peak area / calculated theoretical value
[2] = as above; details: for Peak area / Melting enthalpy: DSC; for Compatibility ratio 104+NPO / Compatibility ratio 104+NPS: from total melting enthalpy; for Compatibility ratio 104+NPO / Enthalpy (J/g) NPO / Compatibility ratio 104+NPS / Enthalpy (J/g) NPS: by 104 Ratio; for Enthalpy (J/g) NPO / Enthalpy (J/g) NPS: total melting enthalpy of mixed ceramides; for Enthalpy (J/g) NPO: 104 with NPO; for Melting enthalpy: total melting enthalpy of single unmixed ceramide; for Ratio: measured peak area / calculated theoretical value, PC-104 and NPS; for Enthalpy (J/g) NPS: 104 with NPS
Procedure: Ceramide compatibility was evaluated through measurement of differential scanning calorimetry (DSC). It is known that a ceramide compatibility study through DSC measurement may be utilized when measurement is not performed by polythermal and isothermal methods, or when slurry density of a solution is high, but has almost never been utilized in a ceramide study. In prediction of solubility of indomethacin (IMC) in polymers such as hydroxypropyl methylcellulose (HPMC) and polyvinylpyrrolidone (PVP), it was also confirmed that solubility prediction of a DSC method is excellent in a combination of IMC and HPMC. Since confirming compatibility between ceramides is a situation of confirming solubility when two solid-phase substances are mixed, a DSC experiment is determined to be very suitable, and thus the present inventors confirmed compatibility by measuring enthalpy of each ceramide, predicting enthalpy of a binary mixture, and actually measuring the same. For DSC measurement, a Thermal Analysis System (differential scanning calorimetry) such as Discovery DSC 250 of TA Instruments was used. In a DSC graph, melting enthalpy was measured by obtaining a peak area, and a unit of the peak area was J/g. A compatibility ratio was calculated by comparing a peak area measurement result of a sample in which ceramides are mixed and a calculated theoretical value (calculated sum area). A compatibility ratio is a ratio indicating compatibility when two components are mixed, and may be used to evaluate whether two components are stable even when mixed and may maintain desired characteristics.. […]
A single sample in which PC-104 and ceramide NP are unmixed (10:0 or 0:10), and samples in which PC-104 and ceramide NP are mixed at ratios such as 1:9 to 9.99:0.01, were each made, a DSC peak area was measured, and an actually measured DSC peak area and a calculated theoretical value according to a ratio of PC-104 and ceramide NP were compared. For compatibility evaluation, a ceramide mixing ratio having a low compatibility ratio was confirmed.

[3] = Solubility of ceramide or ceramide mixture in pure ethanol (94.5% or more)
Source text: Through Example 1, an effect of improvement of compatibility according to ceramide mixing confirmed through DSC measurement was confirmed. Accordingly, an effect of improvement of solubility was additionally confirmed. Specifically, solubility was confirmed as to how well the ceramide or the ceramide mixture dissolves in pure ethanol (94.5% or more).

[4] = PC-104 and NPO at stated weight mixing ratio
[5] = PC-104 and NPS at stated weight mixing ratio

In the case of `CCCCCCCC/C=C\CCCCCCCC(=O)N[C@@H](CO)[C@H](O)[C@H](O)CCCCCCCCCCCCCC` [NPO, CERAMIDE NP(oleic acid)], the Ratio ([1]; PC-104 and NPO) is reported as 1.00, the “Peak area” value [2, 4] is reported as 89.0 J/g and the “Compatibility ratio 104+NPO” value [2] is reported as 1.00. For the same molecule, the “Enthalpy (J/g) NPO” value [2] was 89.0 J/g and the “Melting enthalpy” value [2] was 89.0 J/g.

In the case of `CCCCCCCCCCCCCCCCCC(=O)NC(CO)C(O)C(O)CCCCCCCCCCCCCC` (centres unmarked) [NPS, CERAMIDE NP(stearic acid)], the “Peak area” value [2, 5] is reported as 114.6 J/g, the “Compatibility ratio 104+NPS” value [2] is reported as 1.00 and the Ratio [2] is reported as 1.00. The “Enthalpy (J/g) NPS” value [2] was 114.6 J/g and the “Melting enthalpy” value [2] was 114.6 J/g.

In the case of `CCCCCCCCCCCCCCCC(=O)N(CCO)CC(O)CN(CCO)C(=O)CCCCCCCCCCCCCCC` [PC-104, HYDROXYPROPYL BISPALMITAMIDE MEA], the “Peak area” value ([1]; DSC, PC-104 and NPM at stated weight mixing ratio) is reported as 151.6 J/g, the “DSC enthalpy (J/g) of corresponding composition” value ([1]; PC-104 and NPM compositions of the solubility test) is reported as 151.6 J/g and the “Calculated sum area” value ([1]; calculated theoretical value from the two unmixed ceramides, PC-104 and NPM) is reported as 151.6 J/g. The “Compatibility ratio 104+NPM” value ([1]; from total melting enthalpy, by 104 Ratio) was 1.00, the Ratio ([1]; PC-104 and NPM) was 1.00 and the Ratio ([1]; PC-104 and NPO) was 1.00. The “Enthalpy (J/g) NPM” value ([1]; total melting enthalpy of mixed ceramides, 104 with NPM, by 104 Ratio) was 151.6 J/g, the “Peak area” value [2, 4] was 151.6 J/g and the “Peak area” value [2, 5] was 151.6 J/g. For the same molecule, the “Compatibility ratio 104+NPO” value [2] was 1.00, the “Compatibility ratio 104+NPS” value [2] was 1.00 and the Ratio [2] was 1.00. For the same molecule, the “Enthalpy (J/g) NPO” value [2] was 151.6 J/g, the “Enthalpy (J/g) NPS” value [2] was 151.6 J/g and the “Melting enthalpy” value [2] was 151.6 J/g. For the same molecule, the “EtOH solubility (mg/uL)” value [3] was “about 0.04636 mg/uL”.
